According to article PMC9446078 (Frontiers in Endocrinology, 2022):

Assay: Toxicokinetics in miniature swine
Type: in vivo, Hanford miniature swine
Protocol: A total of 40 Hanford miniature swine (20 male and 20 female) divided into four treatment groups were used for this study. A 12-week topical application of Galnobax 20% was carried out in the miniature swine wound healing model with twice-daily dosing. Six wounds (10 cm^2 each) of partial thickness were created on the dorsal region of all animals. Four wounds of each animal received twice-daily topical doses of either the vehicle or Galnobax gel, and the remaining two sites served as untreated comparative control wounds. Each group has four male and female miniature swine for the assessments and one each for the recovery period as given in Table 1 . Safety parameters in terms of ECG, clinical pathology, wound site evaluation, and toxicokinetics were performed during the study.

[1] = Day 1, Group 2 swine, topical 400 mg Galnobax Gel, mean
[2] = Week 6, Group 2 swine, topical 400 mg Galnobax Gel BID, mean
[3] = Week 12, Group 2 swine, topical 400 mg Galnobax Gel BID, mean

Compound CC(C)NCC(O)COc1ccc(CCC(=O)O)cc1 (centres unmarked) [Esmolol Acid, Esmolol acid] has an AUClast [1] of 3780 ng·h/mL, a Cmax [1] of 683 ng/mL and a Tmax [1] of 2.60 h. The t1/2 [1] was 4.18 h, the t1/2 (Day 1, Group 2 swine, topical 400 mg Galnobax Gel, mean, listed as Esmolol acid) was “approximately 4 hr” and the AUClast [2] was 308 ng·h/mL. It also gave a Cmax [2] of 52.5 ng/mL, a Tmax [2] of 5.33 h and an AUC0-8 [3] of 269 ng·h/mL. The AUClast [3] was 291 ng·h/mL, the Cmax [3] was 59.7 ng/mL and the Tmax [3] was 2.09 h. The t1/2 [3] was 15.90 h and the “accumulation after 12 weeks of twice-daily topical application” value (miniature swine, topical Galnobax) was “no apparent accumulation”.
